Where a SMILES comes first, the peptide text is derived from it. Where no end group is shown, it is not given here. [ ]: non-standard residue; d: D form. Hyp = O=C(O)[C@@H]1C[C@@H](O)CN1
Key:
[1] = system: E2-stimulated growth of mouse uterus; experiment: Immature mouse uterine growth assay; type: in vivo; conditions: for dose-response profile, inhibition of E2-stimulated uterine growth: FIG. 5; for antiestrogenic activity (inhibition of E2-stimulated uterine growth), in words: Table 3 discussion; for antiestrogenic activity (inhibition of E2-stimulated uterine growth), in words / Inhibition ± S.E, % Immature mouse uterine growth Intraperitoneal: 1 μg/mouse intraperitoneally; for Activity % ± SD (percent growth inhibition of uterus): dose 1 ug/animal
Excerpt: The anti-breast cancer activity of the linear and cyclic 8-mer and 9-mer AFP-derived peptides is well-documented using the immature mouse uterine growth assay and the human breast cancer xenograft assay; there is a strong correlation between the results of these two assays. To evaluate peptide-induced inhibition by the peptide of the present invention of estrogen-stimulated proliferation of normal tissue, the immature mouse uterine growth assay was utilized. Briefly, 13-15 day-old Swiss/Webster female mice, 6-8 g in body weight, were distributed into treatment groups of 5 mice per group so that each group contained animals of the same range of body weight. The peptide of the invention was injected i.p., s.c., or p.o. into the mice. One hour later, estradiol (E2) or vehicle control for E2 was injected i.p. Twenty-two hours after the second injection, uteri were harvested, trimmed free of mesenteries, and immediately weighed. The uterine weights were normalized to mouse body weights to compensate for differences in body weight among litters of the same age. Experiments employed a minimum of five mice per group and the mean normalized uterine weight±SE for each group was calculated. Percent growth inhibition in a test group was calculated from normalized uterine wet weights as described below.
Differences between groups were evaluated, employing the nonparametric Wicoxon ranks sum test. In all cases, growth inhibitions that were greater than 25% were significant at P≦0.05.
In other experiments, peptide analogs comprising the sequences TOVN SEQ ID NO.: 3) and TPVN (SEQ ID NO.: 2) were assessed for their ability to inhibit E2-stimulated growth of mouse uterus after intraperitoneal and oral administration.
The ability to inhibit E2-stimulated growth of normal mouse uterus was used as a screening assay for biological activity of AFPep analogs. In general, inhibitory activity≧20% is considered to be biologically significant. Each analog's inhibitory effect on E2-stimulated growth was compared to AFPep (a positive control) and to PGVGQ (SEQ ID NO.: 44)(a negative control). PGVGQ (SEQ ID NO.: 44) (amino acids 478-482 of AFP) is a portion of the primary structure of AFP near to the anti-cancer active site of AFP and is comprised of amino acids (P, V, and G) that are important components of AFPep. A scrambled analog of AFPep was not used because some scrambled peptides retain low biological activity (data not shown). In Table 3, bold letters denote the sequences containing a putative Type I beta-turn, which was postulated to be necessary for antiestrogenic activity.

[2] = system: T47D human breast cancer cells; conditions: for dose response profile, inhibition of E2-stimulated T47D cell growth / concentration up to which E2-stimulated T47D growth was inhibited in a concentration dependent manner / activity maintained: FIG. 6; for inhibition of E2-stimulated T47D cell growth, in words: Table 3 discussion, 1 μM
Procedure: T47D cells were obtained from ATCC® (Rockville, Md.) and grown in culture according recommended protocols. Cells were treated with 1 nM estrogen or 100 nM TOVNO (SEQ ID NO.: 7)/1 nM estrogen. Control cells received 10% estrogen-free media. Cells were treated for seven days.
A number of AFPep analogs were assessed for in vitro anticancer activity.

[3] = system: MCF-7 human breast cancer cells; experiment: MCF-7 human tumor xenograft assay in SCID mice; type: in vivo, mouse; conditions: for change in mean tumor volume: FIG. 1
Procedure: The peptides of the invention were evaluated for their ability to inhibit tumor growth in a human tumor xenograft assay. Briefly, MCF-7 human breast cancer cells were obtained from ATCC® (Rockville, Md.) and were grown in DMEM supplemented with 5% FCS, 1% non-essential amino acids, 10 ng/ml insulin, 2 mM L-glutamine, 100 units/ml penicillin, and 100 μg/ml streptomycin. MCF-7 cells from culture were solidified into a fibrin clot. The tumor-containing clots were cut into pieces about 1.5 mm in diameter and implanted under the kidney capsule of severe combined immunodeficient (ICR-SCID) mice (Taconic Farms, Germantown, N.Y.) as described in Bennett et al. (Clin. Cancer Res. 1998; 4:2877-84).
Estrogen supplementation of mice was required for the growth of MCF-7 tumors. Supplementation was accomplished by s.c. implantation of a Silastic tubing capsule containing solid E2 (2 mm in length) inserted on the day of tumor implantation. Tumor size was evaluated during survival laparotomy using a dissecting microscope at the time of tumor implantation and at days 15 and 30 after tumor implantation.
The T47D human breast cancer cell line is responsive in culture, but it was a less reliable tool when grown as a xenograft tumor in immune deficient mice, having a take-rate of <60% in these mice. However, the MCF-7 human breast cancer cell line has a tumor take-rate of 100% in immune deficient mice and is completely dependent on E2 for growth in these mice (2). Consequently, MCF-7 xenografts were used as a model for ER+human breast cancer to evaluate, in vivo, the effectiveness of TOVNO (SEQ ID NO.: 7) and TOVNOGNEK (SEQ ID NO.: 34) as anticancer agents.

[4] = once a day 10 μg per mouse i.p., FIG. 7b
[5] = once a day 100 μg by oral gavage, FIG. 7a

CC(C)[C@H](NC(=O)[C@@H]1C[C@@H](O)CN1C(=O)[C@@H](NC(=O)[C@H](CCCCN)NC(=O)[C@@H](N)CCC(=O)O)[C@@H](C)O)C(=O)N[C@@H](CC(N)=O)C(=O)N1C[C@H](O)C[C@H]1C(=O)NCC(=O)N[C@@H](CC(N)=O)C(N)=O [EKTOVNOGN] (H-EKT[Hyp]VN[Hyp]GN-NH2; N-terminus and C-terminus assumed)
dose-response profile, inhibition of E2-stimulated uterine growth [1]: biphasic dose-response curve | antiestrogenic activity (inhibition of E2-stimulated uterine growth), in words [1]: active at this dose | dose response profile, inhibition of E2-stimulated T47D cell growth [2]: biphasic dose response curve

CC(C)[C@H](NC(=O)[C@@H]1C[C@@H](O)CN1C(=O)[C@@H](N)[C@@H](C)O)C(=O)N[C@@H](CC(N)=O)C(N)=O [TOVN] (H-T[Hyp]VN-NH2; N-terminus assumed)
antiestrogenic activity (inhibition of E2-stimulated uterine growth), in words [1]: weak antiestrogenic activity | inhibition of E2-stimulated T47D cell growth, in words [2]: very weak inhibitory activity

CC(C)[C@H](NC(=O)[C@@H]1C[C@@H](O)CN1C(=O)[C@@H](NC(=O)[C@@H](N)CCCCN)[C@@H](C)O)C(=O)N[C@@H](CC(N)=O)C(=O)N1C[C@H](O)C[C@H]1C(=O)NCC(N)=O [KTOVNOG] (H-KT[Hyp]VN[Hyp]G-NH2; N-terminus and C-terminus assumed)
antiestrogenic activity (inhibition of E2-stimulated uterine growth), in words [1]: significantly inhibited E2-stimulated uterine growth

CC(C)[C@H](NC(=O)[C@@H]1C[C@@H](O)CN1)C(=O)N[C@@H](CC(N)=O)C(=O)N1C[C@H](O)C[C@H]1C(=O)NCC(N)=O [OVNOG] (H-[Hyp]VN[Hyp]G-NH2; N-terminus assumed)
antiestrogenic activity (inhibition of E2-stimulated uterine growth), in words [1]: weakly inhibited E2-stimulated uterine growth

EKTPV [5-mer outside the pharmacophoric region]
Inhibition ± S.E, % Immature mouse uterine growth Intraperitoneal [1]: 0% | antiestrogenic activity (inhibition of E2-stimulated uterine growth), in words [1]: little or no antiestrogenic activity

CC(C)[C@H](NC(=O)[C@@H]1C[C@@H](O)CN1C(=O)[C@@H](NC(=O)[C@H](CCCCN)NC(=O)[C@@H](N)CCC(=O)O)[C@@H](C)O)C(N)=O [EKTOV] (H-EKT[Hyp]V-NH2; N-terminus assumed)
antiestrogenic activity (inhibition of E2-stimulated uterine growth), in words [1]: little or no antiestrogenic activity

CC(C)[C@H](NC(=O)[C@@H]1C[C@@H](O)CN1C(=O)[C@@H](N)[C@@H](C)O)C(=O)N[C@@H](CC(N)=O)C(=O)N1C[C@H](O)C[C@H]1C(=O)NCC(=O)N[C@@H](CC(N)=O)C(=O)N[C@@H](CCC(=O)O)C(=O)N[C@@H](CCCCN)C(N)=O [TOVNOGNEK] (H-T[Hyp]VN[Hyp]GNEK-NH2; N-terminus and C-terminus assumed)
dose-response profile, inhibition of E2-stimulated uterine growth [1]: maintained its inhibitory effect at high doses | antiestrogenic activity (inhibition of E2-stimulated uterine growth), in words [1]: significantly inhibited E2-stimulated uterine growth | growth of ER+ human MCF-7 breast cancer tumors [3, 4]: significantly inhibited | growth of ER+ human MCF-7 breast cancer tumors [3, 5]: significantly inhibited | concentration up to which E2-stimulated T47D growth was inhibited in a concentration dependent manner / activity maintained [2]: ≤ 10^−4 M | dose response profile, inhibition of E2-stimulated T47D cell growth [2]: maintained its activity with increasing concentrations | inhibition of E2-stimulated T47D cell growth, in words [2]: comparable to AFPep

CC(C)[C@@H]1NC(=O)[C@@H]2C[C@@H](O)CN2C(=O)[C@H]([C@@H](C)O)NC(=O)[C@H](CCCCN)NC(=O)[C@H](CCC(=O)O)NC(=O)[C@H](CC(N)=O)NC(=O)CNC(=O)[C@@H]2C[C@@H](O)CN2C(=O)[C@H](CC(N)=O)NC1=O [cyclo[EKTOVNOGN], reference compound] (cyclo(EKT[Hyp]VN[Hyp]GN))
dose-response profile, inhibition of E2-stimulated uterine growth [1]: attenuated but did not completely eliminate this loss of activity with increasing doses | growth of ER+ human MCF-7 breast cancer tumors [3, 4]: significantly inhibited | growth of ER+ human MCF-7 breast cancer tumors [3, 5]: significantly inhibited | concentration up to which E2-stimulated T47D growth was inhibited in a concentration dependent manner / activity maintained [2]: up to 10^−6 M | dose response profile, inhibition of E2-stimulated T47D cell growth [2]: lost activity at higher concentrations | Inhibition ± S.E, % T47D cell proliferation ([2]; peptide 1 μM, E2-stimulated): 51 ± 4 %

KTPVNPG
Inhibition ± S.E, % Immature mouse uterine growth Intraperitoneal [1]: 34 ± 2 % | antiestrogenic activity (inhibition of E2-stimulated uterine growth), in words [1]: significantly inhibited E2-stimulated uterine growth

TPVN
Inhibition ± S.E, % Immature mouse uterine growth Intraperitoneal [1]: 29 ± 1 % | Activity % ± SD (percent growth inhibition of uterus) [1]: 27%

CC(C)[C@H](NC(=O)[C@@H]1C[C@@H](O)CN1C(=O)[C@@H](N)[C@@H](C)O)C(=O)N[C@@H](CC(N)=O)C(=O)N1C[C@H](O)C[C@H]1C(N)=O [TOVNO] (H-T[Hyp]VN[Hyp]-NH2; N-terminus assumed)
dose-response profile, inhibition of E2-stimulated uterine growth [1]: biphasic dose-response curve | dose up to which E2-stimulated uterine growth was inhibited in a dose-dependent manner ([1]; FIG. 5c): up to 1 μg/mouse | antiestrogenic activity (inhibition of E2-stimulated uterine growth), in words [1]: significantly inhibited E2-stimulated uterine growth | change in mean tumor volume ([3]; 100 μg/day p.o.): significantly decreased the increase in tumor volume | change in mean tumor volume ([3]; intraperitoneal 1 μg/day): effective in reducing the increase in mean tumor volume | change in mean tumor volume ([3]; intraperitoneal 10 μg/day): effective in reducing the increase in mean tumor volume | growth of ER+ human MCF-7 breast cancer tumors [3, 4]: significantly inhibited | growth of ER+ human MCF-7 breast cancer tumors [3, 5]: significantly inhibited | estrogen-stimulated T47D cell proliferation ([2]; 100 nM peptide/1 nM estrogen, seven days, FIG. 3): T47D cell proliferation was reduced | concentration up to which E2-stimulated T47D growth was inhibited in a concentration dependent manner / activity maintained [2]: up to 10^−7 M | dose response profile, inhibition of E2-stimulated T47D cell growth [2]: lost activity with increasing concentration thereafter | inhibition of E2-stimulated T47D cell growth, in words [2]: significantly inhibited

CC(C)[C@H](NC(=O)[C@@H]1C[C@@H](O)CN1)C(=O)N[C@@H](CC(N)=O)C(=O)N1C[C@H](O)C[C@H]1C(N)=O [OVNO] (H-[Hyp]VN[Hyp]-NH2; N-terminus assumed)
antiestrogenic activity (inhibition of E2-stimulated uterine growth), in words [1]: lacked antiestrogenic activity | inhibition of E2-stimulated T47D cell growth, in words [2]: lacked inhibitory activity

EMTOV (EMT[Hyp]V; not fully specified (C-terminus)) [5-mer outside the pharmacophoric region]
Inhibition ± S.E, % Immature mouse uterine growth Intraperitoneal [1]: 1 ± 1% | antiestrogenic activity (inhibition of E2-stimulated uterine growth), in words [1]: little or no antiestrogenic activity

PVNP
Inhibition ± S.E, % Immature mouse uterine growth Intraperitoneal [1]: 6 ± 3% | Activity % ± SD (percent growth inhibition of uterus) [1]: 10%

TPVNP
Inhibition ± S.E, % Immature mouse uterine growth Intraperitoneal [1]: 27 ± 1 % | Activity % ± SD (percent growth inhibition of uterus) [1]: 26%

EMTPV [5-mer outside the pharmacophoric region]
Inhibition ± S.E, % Immature mouse uterine growth Intraperitoneal [1]: 5 ± 4% | antiestrogenic activity (inhibition of E2-stimulated uterine growth), in words [1]: little or no antiestrogenic activity

MTOVNOG (MT[Hyp]VN[Hyp]G; not fully specified (C-terminus))
Inhibition ± S.E, % Immature mouse uterine growth Intraperitoneal [1]: 28 ± 2 % | antiestrogenic activity (inhibition of E2-stimulated uterine growth), in words [1]: significantly inhibited E2-stimulated uterine growth

From US7964701B2, “Alpha-fetoprotein peptides” (Albany Medical College, priority 2006, dated 2011)
